Results: publication PMC12471852, “Design and Synthesis of Marine-Inspired Itampolin A Derivatives to Overcome Chemoresistance in NSCLC via Cholesterol Homeostasis Modulation” (Marine Drugs, 2025)
“And” between values parts separate entries of the source, which are not always exact repeats. Equal values may be shown once. “Also recorded” adds a separate entry of the source.

Columns and labels:
p38α = p38α (Homo sapiens, UniProt Q16539); assay: ADP-Glo Kinase Assay, p38α MAP kinase inhibition; assay type: biochemical; conditions: read-out: p38α MAP kinase inhibitory activity IC50
Description: The capacity of brominated tyrosine derivatives to inhibit p38α activity was evaluated using the ADP-Glo Kinase Assay.

BEAS-2B cells = assay: MTT cytotoxicity assay, normal bronchial epithelial BEAS-2B cells; assay type: cell-based, human
Description: The cytotoxicity of compound 4l on normal human bronchial epithelial cells (BEAS-2B) was also evaluated using the MTT assay. Cells treated with 0.1% DMSO served as the vehicle control.
The human normal lung epithelial cell line BEAS-2B, non-small cell lung carcinoma (NSCLC) cell line PC9, and gefitinib-resistant PC9/GR cell line were purchased from Procell Life Science & Technology Co., Ltd. (Wuhan, China). All cell lines were maintained in RPMI-1640 medium (BI, Beit Haemek, Mateh Asher, Israel) supplemented with 10% fetal bovine serum (FBS, Gibco, Thermo Fisher Scientific, Waltham, MA, USA) and 1% penicillin–streptomycin–amphotericin B sterile solution (Solarbio, Beijing, China). Cells were cultured at 37 °C in a humidified incubator with 5% CO2. For subculturing, cells were harvested using trypsin-EDTA solution upon reaching 70–80% confluence and resuspended at appropriate densities for subsequent experiments.
MTT: Cells (5 × 10^4/mL) were treated with 4l (25–100 μM, 24–48 h), incubated with MTT (10 μL/well, 4–6 h), and dissolved in DMSO. Absorbance (490 nm) was measured to assess viability.

PC9/GR cells [1] = assay: BODIPY 493/503 lipid droplet staining; assay type: cell-based, human
Description: To investigate the relationship between intracellular cholesterol levels and gefitinib resistance, we measured cholesterol content in PC9 (gefitinib-sensitive) and PC9/GR (gefitinib-resistant) cells. […] To further elucidate the role of TM7SF2 in mediating the cholesterol-lowering effects of compound 4l in PC9/GR cells, we generated a TM7SF2-overexpressing PC9/GR cell line via plasmid transfection.

PC9/GR cells [2] = assay: Clonogenic survival / colony formation assay; assay type: cell-based, human; conditions: 24 h pretreatment, 14 days culture, p < 0.05 vs untreated controls
Description: (§1) To evaluate the tumor-selective activity of compounds 4l and 4m, dose–response studies were performed on wild-type PC9 and gefitinib-resistant PC9/GR cell lines. […] Subtoxic concentrations of 25, 50, and 75 μM were employed to ensure specificity for drug-resistant phenotypes while preserving normal cell viability. […] To assess long-term proliferative potential, clonogenic survival assays were performed. Cells pretreated with 4l (24 h) were trypsinized to generate single-cell suspensions, plated at 300 cells/well, and cultured for 14 days. […] Cell migration ability was evaluated by the scratch healing assay. […] To evaluate the pro-apoptotic efficacy of 4l, we employed a dual-staining approach using Annexin V-FITC and propidium iodide (PI) for quadrant-specific quantification of programmed cell death. Annexin V binds externalized phosphatidylserine (PS), a hallmark of early apoptosis, while PI permeabilization discriminates late-stage apoptotic or necrotic cells.
Clonogenic Survival: Single-cell suspensions (300 cells/well) were cultured for 14 days. Colonies (>50 cells) were fixed (4% PFA), stained with crystal violet, and counted.
PC9/GR cells were seeded into 6-well plates at a density of […] and cultured in a 37 °C incubator for 2 weeks. The culture medium was then discarded, and the cells were washed with PBS. […] Finally, the number of cell colonies was counted.

PC9/GR cells [3] = assay: Annexin V-FITC/PI apoptosis, flow cytometry; assay type: cell-based, human; conditions: 24 h, vehicle control 5.2%
Description: as §1
Annexin V/PI Apoptosis: 4l treated cells were stained with Annexin VFITC/PI (15 min, dark), analyzed by flow cytometry (Q2/Q3: late/early apoptosis).

[4] = Body weight / toxicity monitoring in tumor-bearing nude mice; assay type: in vivo, BALB/c nude mice
Description: (§2) For many years, the technique of implanting human tumor cell lines into nude mice models has been widely used to predict the anti-cancer effects of targeted anti-cancer drugs. In the nude mouse tumor implantation experiment, we continuously monitored the changes in the mouse body weight after administration. […] At the end of the experiment, after euthanizing the nude mice using the spinal dislocation method, we isolated the tumor tissues, weighed them, and conducted statistical analysis.
(§3) BALB/c nude mice (n = 12) were subcutaneously injected with PC9/GR cells (1 × 10^7 cells/mouse). When tumors reached 50 mm^3, mice received daily 4l or vehicle (3 weeks). Tumor volume (0.52 × length × width^2) and weight were recorded post-euthanasia.

[5] = tested on: PC9/GR nude mouse xenografts; assay: PC9/GR nude mouse xenograft tumor growth; assay type: in vivo, BALB/c nude mice
Description: as §2, §3

Sequence of p38α (Q16539 whole entry): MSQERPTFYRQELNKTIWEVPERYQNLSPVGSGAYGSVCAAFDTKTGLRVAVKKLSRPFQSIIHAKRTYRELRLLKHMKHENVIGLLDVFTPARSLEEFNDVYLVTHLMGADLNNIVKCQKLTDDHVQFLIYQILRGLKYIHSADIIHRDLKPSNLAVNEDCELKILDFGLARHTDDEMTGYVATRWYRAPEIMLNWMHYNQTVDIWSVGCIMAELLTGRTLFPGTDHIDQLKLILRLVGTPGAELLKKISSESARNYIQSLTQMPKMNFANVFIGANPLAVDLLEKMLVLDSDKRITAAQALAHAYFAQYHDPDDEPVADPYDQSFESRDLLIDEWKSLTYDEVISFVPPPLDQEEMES

## O=C(NCCc1cc(Br)c(O)c(Br)c1)Nc1ccc(F)cc1 [4l, 1-(3,5-dibromo-4-hydroxyphenethyl)-3-(4-fluorophenyl)urea]
p38α
  IC50: 9.7 ± 1.4 nM
BEAS-2B cells; 25 (μM), 24 h
  MTT, normal cells, value relative to control (=100), single replicate: 88.6 and 95.3 and 97.6 and 88.2
BEAS-2B cells; 25 (μM), 48 h
  MTT, normal cells, value relative to control (=100), single replicate: 90.6 and 83.5 and 89.7 and 76.4
BEAS-2B cells; 25 to 100 μM, 24 h
  anti-proliferative effect on BEAS-2B cells: no significant anti-proliferative effects
BEAS-2B cells; 50 (μM), 24 h
  MTT, normal cells, value relative to control (=100), single replicate: 80.6 and 83.5 and 79.7 and 76.4
BEAS-2B cells; 50 (μM), 48 h
  MTT, normal cells, value relative to control (=100), single replicate: 79.8 and 82.9 and 80.5 and 70.5
BEAS-2B cells; 75 (μM), 24 h
  MTT, normal cells, value relative to control (=100), single replicate: 79.4 and 80.4 and 76.3 and 78.9
BEAS-2B cells; 75 (μM), 48 h
  MTT, normal cells, value relative to control (=100), single replicate: 75.2 and 77.7 and 73.1 and 76.4
BEAS-2B cells; 100 (μM), 24 h
  MTT, normal cells, value relative to control (=100), single replicate: 80.2 and 71.5 and 74.6 and 73.5
BEAS-2B cells; 100 (μM), 48 h
  MTT, normal cells, value relative to control (=100), single replicate: 77.3 and 80.6 and 71 and 69.3
BEAS-2B cells; doses ≤ 100 μM
  cytotoxicity in normal lung cells: negligible cytotoxicity; also recorded: minimal cytotoxicity
BEAS-2B cells; prolonged treatment, 48 h
  cellular proliferation efficiency of BEAS-2B cells: remained comparable to untreated controls
PC9/GR cells [1]
  lipid droplet accumulation: significantly inhibited this lipid accumulation
PC9/GR cells [2]
  colony formation: statistically significant inhibition
PC9/GR cells [3]; 25 μM
  total apoptosis: 9.1%
PC9/GR cells [3]; 50 μM
  total apoptosis: 13.13%
PC9/GR cells [3]; 75 μM
  total apoptosis: 19.53%
[4]; 200 mg/kg, 21 days
  mouse body weight after administration: no significant decrease or fluctuation
[4]; dosage used in the xenograft experiment
  toxicity to nude mice / systemic toxicity: did not have significant toxicity; also recorded: without eliciting systemic toxicity; also recorded: without inducing systemic toxicity
[5]; 200 mg/kg of gefitinib and compound 4l
  tumor growth inhibition compared to gefitinib-treated group: stronger inhibitory effect
[5]; 200 mg/kg, daily, 3 weeks, p < 0.05
  in vivo growth of PC9/GR xenografts (tumor volume): effectively inhibited; also recorded: significant suppression; also recorded: significantly inhibited tumor growth
[5]; end of experiment
  excised tumor weight: consistent with the volume data
